Measurements from article PMC11228983, “Rapid Protein–Ligand Affinity Determination by Photoinduced Hyperpolarized NMR” (Journal of the American Chemical Society, 2024).
Residues, ends and D or L forms follow the SMILES beside them.

Assays:
[1] = target: T1, PDZ2 domain of human tyrosine phosphatase 1E (hPTP1E) (Homo sapiens, UniProt Q12923); assay: 2D [1H,15N]-HSQC chemical shift perturbation titration; type: binding; conditions: 30 μM 15N PDZ2, pH 6.8, 298 K
T1 construct: the constructs used for the PDZ2 domain of human tyrosine phosphatase 1E; polyhistidine (N); made in house; host or cells: Escherichia coli BL21 (DE3)
T1 sequence (Q12923 1368-1452 limits assumed): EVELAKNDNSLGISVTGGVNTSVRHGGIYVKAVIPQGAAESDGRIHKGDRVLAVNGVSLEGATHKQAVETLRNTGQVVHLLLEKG
Method: We compared the affinities of the peptides obtained via CIDNP-KD with the state-of-the-art 2D [^1H, ^15N]-HSQC titration experiments measured with 30 μM PDZ2 (Figure S3).
Expression and purification were carried out as in previously reported procedures. In short, expression in Escherichia coli cells (BL21 (DE3)) and purification via Ni-NTA chromatography as the constructs used for the PDZ2 domain of human tyrosine phosphatase 1E and human PIN1 both contained N-terminal polyhistidine tags. Both protein constructs were measured in an NMR buffer consisting of 50 mM NaCl, 20 mM KPO4, and 10% D2O at pH 6.8. For the control [^1H, ^15N]-HSQC experiments, the PDZ2 domain was expressed in ^15N-enriched minimal medium.[34],[43]
All photo-CIDNP and STD-NMR experiments were recorded at 298 K on a Bruker Avance III HD 600 MHz spectrometer equipped with a cryoprobe. The [^15N, ^1H] – HSQC titration experiments of the PDZ2 domain were performed also at 298 K on another Bruker Avance IIII HD 600 MHz spectrometer equipped with a cryoprobe and SampleJet.
Peak picking was performed with the maximal peak picking tool of Mnova software. Plotting, fitting, and data analysis was done in RStudio with the workflow described above. The [^15N, ^1H]-HSQC reference affinities were analyzed with CCPNMR3.1.[62] The backbone assignment was taken from BMRB 34688.
Fig. S3: 2D [15N, 1H]-HSQC titration of peptides to hPDZ2 domain. The 2D [ 15N, 1H]-
HSQC spectra of the titration series in presence of 30 µM hPDZ2 domain and the
corresponding observed chemical shift difference of A74 plotted versus the peptide
(1 picture or pasted object on this page, not shown here)

[2] = target: T1, PDZ2 domain of human tyrosine phosphatase 1E (hPTP1E); assay: Competition CIDNP-KD assay with photo-CIDNP-active reporter peptide; type: binding; conditions: reporter WVSAV 20 μM (KD,R 170 μM), 5 μM PDZ2; 1000 ms irradiation, single scan; read-out: Competition CIDNP-KD (KD,C), Hβ of reporter WVSAV
Description: Photo-CIDNP hyperpolarization is limited to a particular chemical space of ligands that contain heteroaromatics and heterosubstituted aromatic rings.[24],[29] To address the challenge of limited chemical space, we extend CIDNP-KD to measure the affinity of nonpolarizable ligands through competition with a polarizable reporter ligand R, whose affinity KD,R is known as depicted in Scheme 2. By adding a competitor C, the concentration and photo-CIDNP signal of the reporter ligand R* will increase, indicating the reduced amount of the complex PR* and, by extension, PR.[30]
To calculate the concentration of the ligand–protein complex in the presence of the binding competitor, the ratio of the amplification factors in the presence and absence of the competitor [drawing 6] […]
These competitor ligands lack a tryptophan residue, whereas the reporter ligands WVSAV and WQVSAV are photo-CIDNP-active due to the tryptophan tag. The hyperpolarized signal of WVSAV or WQVSAV in the presence of the PDZ2 domain was measured for increasing concentrations of the peptides QVSAV or ENEQVSAV, respectively. […]
Figure 3 KD determination of nonphoto-CIDNP-active peptides binding to a PDZ2 domain. […] The bound reporter population is plotted, calculated from the hyperpolarized tryptophan Hβ using eq 7. […] Each data point is measured with a single-scan experiment with a laser irradiation duration of (A) 1000 ms or (B) 2000 ms. […]

Kd ([1]; 15N–1H moiety of A74, read-out: [1H,15N]-HSQC–CSP KD, NH of A74): 155 ± 10 µM | Kd ([1]; range over residues, read-out: [1H,15N]-HSQC–CSP KD range of all residues showing chemical shift perturbation): 90 to 750 µM | Kd [2]: 580 ± 30 µM
SMILES: CC(C)[C@H](NC(=O)[C@H](C)NC(=O)[C@H](CO)NC(=O)[C@@H](NC(=O)[C@@H](N)CCC(N)=O)C(C)C)C(=O)O [QVSAV] (H-QVSAV-OH)
